Experimental data reported in ChEMBL document CHEMBL1955835, “Effects of the indolocarbazole 3744W on the tyrosine kinase activity of the cytoplasmic domain of the platelet-derived growth factor beta-receptor” (Cell Signal, 1999).
Calls of active or inactive are those of the source. No cut-off for these calls is given here.

How the values were obtained:
[1] = Inhibition of PDGF-dependent PDGFR-mediated cell proliferation in rat A10 cells; assay type: cell-based
[2] = target: T1, Platelet-derived growth factor receptor beta (Homo sapiens, UniProt P09619); test: Inhibition of recombinant cytoplasmic domain of PDGFRbeta expressed in baculovirus infected Sf21 insect cells using poly(Glu4,Tyr1) and [gamma-33P]ATP at 100 uM by SDS-PAGE based scintillation counting
[3] = target: T1, Platelet-derived growth factor receptor beta; test: Inhibition of recombinant cytoplasmic domain of PDGFRbeta expressed in baculovirus infected Sf21 insect cells using 10 fold less poly(Glu4,Tyr1) and [gamma-33P]ATP at 100 uM by SDS-PAGE based scintillation counting
[4] = target: T1, Platelet-derived growth factor receptor beta; test: Inhibition of recombinant cytoplasmic domain of PDGFRbeta autophosphorylation expressed in baculovirus infected Sf21 insect cells using [gamma-33P]ATP by SDS-PAGE based scintillation counting
[5] = target: T1, Platelet-derived growth factor receptor beta; test: Inhibition of recombinant cytoplasmic domain of PDGFRbeta expressed in baculovirus infected Sf21 insect cells assessed as tyrosine phosphorylation treated 30 hrs after infection measured after 48 hrs of post infection by Western blotting
[6] = Inhibition of PDGF-dependent PDGFR autophosphorylation in rat A10 cells; assay type: cell-based

T1 sequence (P09619 whole entry, the tested form may be a part): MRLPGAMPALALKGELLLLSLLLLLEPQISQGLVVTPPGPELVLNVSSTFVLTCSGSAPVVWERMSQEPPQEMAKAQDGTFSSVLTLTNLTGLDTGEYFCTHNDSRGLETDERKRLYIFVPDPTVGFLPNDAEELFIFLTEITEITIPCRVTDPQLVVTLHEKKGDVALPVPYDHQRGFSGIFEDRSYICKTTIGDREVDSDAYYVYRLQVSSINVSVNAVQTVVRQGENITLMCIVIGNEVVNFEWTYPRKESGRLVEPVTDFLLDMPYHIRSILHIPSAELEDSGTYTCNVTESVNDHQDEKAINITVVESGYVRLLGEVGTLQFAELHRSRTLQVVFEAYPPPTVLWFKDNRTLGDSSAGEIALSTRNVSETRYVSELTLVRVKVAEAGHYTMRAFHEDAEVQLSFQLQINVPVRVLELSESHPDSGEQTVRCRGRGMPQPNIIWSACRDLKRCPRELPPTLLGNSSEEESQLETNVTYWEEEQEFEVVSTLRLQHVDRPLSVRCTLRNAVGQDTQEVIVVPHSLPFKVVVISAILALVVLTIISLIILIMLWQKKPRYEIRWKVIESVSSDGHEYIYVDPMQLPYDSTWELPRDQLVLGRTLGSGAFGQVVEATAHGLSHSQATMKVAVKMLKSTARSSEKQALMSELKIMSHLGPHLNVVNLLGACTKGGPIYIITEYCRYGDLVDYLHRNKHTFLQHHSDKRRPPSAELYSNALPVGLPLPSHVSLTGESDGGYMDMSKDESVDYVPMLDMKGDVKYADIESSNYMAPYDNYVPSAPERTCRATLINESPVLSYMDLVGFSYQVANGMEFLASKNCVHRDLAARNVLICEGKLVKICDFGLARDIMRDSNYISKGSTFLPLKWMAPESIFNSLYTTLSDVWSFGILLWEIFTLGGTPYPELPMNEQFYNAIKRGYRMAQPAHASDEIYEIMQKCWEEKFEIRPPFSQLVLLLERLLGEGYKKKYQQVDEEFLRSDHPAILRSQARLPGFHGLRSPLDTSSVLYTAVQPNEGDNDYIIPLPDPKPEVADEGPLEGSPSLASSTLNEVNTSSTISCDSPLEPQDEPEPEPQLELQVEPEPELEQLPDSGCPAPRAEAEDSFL

Which results are given for `COc1ccc2[nH]c3c4[nH]c5ccc(OC)cc5c4c4c(c3c2c1)C(=O)NC4=O` [GW296115X]?
IC50 [1]: 0.01 µM; inhibition [2]: inactive; inhibition [3]: inactive; IC50 [4]: 1.8 µM; inhibition [4]: Dose-dependent effect; IC50 [5]: 2 µM; inhibition [5]: Dose-dependent effect; IC50 [6]: 0.015 µM
